From publication PMC6073232 (International Journal of Molecular Sciences, 2018)

Key:
[1] = target: T1, TRESK (K2P18.1) (Mus musculus, UniProt Q6VV64); experiment: whole-cell patch clamp (abstract prints IC50 […]); type: cell-based
T1 construct: gene Kcnk18; mouse TRESK (NM_207261) in HEK-293 cells
T1 sequence (Q6VV64 1-394): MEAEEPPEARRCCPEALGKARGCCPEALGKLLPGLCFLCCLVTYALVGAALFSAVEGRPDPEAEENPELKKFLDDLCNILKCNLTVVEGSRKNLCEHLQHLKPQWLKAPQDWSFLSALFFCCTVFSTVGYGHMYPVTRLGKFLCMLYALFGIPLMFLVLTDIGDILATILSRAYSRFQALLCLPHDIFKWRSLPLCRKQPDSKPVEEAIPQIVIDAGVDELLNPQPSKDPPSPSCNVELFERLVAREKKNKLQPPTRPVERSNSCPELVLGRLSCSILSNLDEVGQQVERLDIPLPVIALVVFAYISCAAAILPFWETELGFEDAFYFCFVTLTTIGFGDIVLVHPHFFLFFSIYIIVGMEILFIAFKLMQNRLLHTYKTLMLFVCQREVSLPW

[2] = target: T1, TRESK (K2P18.1); experiment: whole-cell patch clamp, % inhibition at […]; type: cell-based

| SMILES | IC50 [1] [µM] | inhibition at 20 µM [2] [%] |
| --- | --- | --- |
| COC(=O)C1=C(C)NC(C)=C(C(=O)OC)C1c1ccccc1[N+](=O)[O-] [nifedipine] | 63.8 | – |
| COc1ccc(CCN(C)CCCC(C#N)(c2cc(OC)c(OC)c(OC)c2)C(C)C)cc1OC (centres unmarked) [D600] | – | 45 ± 6 |
